Results taken from US20040152784A1, “Pharmaceutical composition and method for treatment of a urea cycle deficiency or sickle-cell anaemia” (Special Products Limited, priority 2002, published 2004).
≈ marks a conversion by molar mass, not a printed value. Entries after “also recorded” stand apart in the source; their conditions may differ. Read-outs that look alike come from different tables or passages of the source. Residues, ends and D or L forms follow the SMILES beside them.

Assays:
[1] = cited from earlier work; for Stability / hydrolysis in water: in words
[2] = cited from earlier work
[3] = Solubility in water; assay type: physicochemical; details: in water at 10° C.; read-out: maximum solubility of sodium 4-phenylbutyrate
[4] = tested on: bacterial and fungal growth; assay: Prevention of bacterial and fungal growth in the concentrated flavored solution without preservative; assay type: cell-based; details: 250 mg/ml, no preservative
Description: This may not apply at much lower concentrations. Therefore, the concentrated solution should be diluted by the patient's carer or guardian immediately before it is consumed by the patient. Thus the patient's carer or guardian should not prepare a jug of ready-to-use liquid to last a week or so.

[5] = Bulk density and powder properties; assay type: physicochemical
Protocol: A pharmaceutical composition made by either of such methods typically has a bulk density of about 52.6 g/100 ml. […] A 25 g quantity of the granulated pharmaceutical composition will thus approximately half fill a 100 ml bottle.

COC(=O)[C@H](Cc1ccccc1)NC(=O)[C@@H](N)CC(=O)O [Aspartame] (H-Asp-Phe-OMe)
hydrolyses significantly to phenylalanine (non-sweet) within ([1]; in water): ≤ 6 months
Stability / hydrolysis in water [1]: hydrolyses to phenylalanine within a few weeks; also recorded: Hydrolyses in water
solubility [2]: 10 mg/mL (≈ 34 mM)

OC[C@@H](O)[C@@H](O[C@H]1O[C@H](CO)[C@@H](O)[C@H](O)[C@H]1O)[C@H](O)[C@@H](O)CO [Maltitol]
Solubility in Water ([2]; in words): Very soluble

CC1=CC(=O)NS(=O)(=O)O1 [Potassium acesulfame]
Stability / hydrolysis in water [1]: Stable in water
Dissolution ([2]; in words): Fast dissolution
Solubility in Water ([2]; in words): Very soluble

O=C([O-])CCCc1ccccc1.[Na+] [Sodium 4-phenylbutyrate]
solubility [3]: 250 mg/mL
prevention of bacterial and fungal growth [4]: prevents such growth
bulk density [5]: about 26.4 g/100 ml
hygroscopicity [5]: somewhat hygroscopic

O=C1NS(=O)(=O)c2ccccc21.[Na] [Sodium Saccharine]
Solubility in Water ([2]; in words): Very soluble

O=S(=O)([O-])NC1CCCCC1.[Na+] [Sodium cyclamate]
Solubility in Water ([2]; in words): Soluble
